Measured values published in patent publication US9968605B2, “2-(2-methylamino-pyrimidin-4-yl)-1h-indole-5-carboxylic acid [(S)-1-carbamoyl-2-(phenyl-pyrimidin-2-yl-amino)-ethyl]-amide for use in the treatment of pain associated to osteoarthritis” (SANOFI, priority 2014, dated 2018).
“Also recorded” adds a separate entry of the source.

Key:
patients with knee OA [1] = experiment: Clinical trial: safety and tolerability of a single intra-articular dose in patients with knee OA; format: in vivo
Method: (§1) The objective of this study was to assess in patients with knee OA, the efficacy, safety and tolerability of a single intra-articular dose of Compound A.
(§2) This was a two-center, double-blind, randomized, placebo controlled, single dose study. Following a review of the safety data up to Day 28 from Part 1 of this study, the second part of the study assessed the efficacy of a single dose of Compound A, selected from the maximum administered/tolerated dose from Part 1 (60 mg), in relieving symptoms of patients with knee OA.
(§3) Screening was performed within 28 days of dosing. Following the single dose of study medication administered via intra-articular injection on Day 1, each patient remained at the Study Unit for 4 hours after dosing and, provided there was no difficulty with tolerability, patients were discharged and returned periodically for outpatient visits. Each patient was followed up to Day 168 (end-of-study visit); therefore the study period was 28 weeks.
Safety was assessed by adverse event (AE) monitoring, standard clinical laboratory evaluations, physical examination, vital sign and electrocardiogram (ECG) assessments, local tolerability at site of injection and assessments of the knee joint (effusion/worsening of effusion).
The safety analysis was based on the review of descriptive statistics and individual data for AEs, clinical laboratory, vital signs, and ECG parameters. Adverse events were coded according to the Medical Dictionary for Regulatory Activities (version 15.1) and the numbers of subjects with treatment-emergent AEs (TEAEs) were tabulated (counts and percents). For clinical laboratory, vital signs, and ECG data, the analyses of abnormalities were based on the definitions of potentially clinically significant abnormalities (PCSAs; definitions according to version 2.0 dated 14 Sep. 2009). Local tolerance/tolerability at the site of injection was summarized by descriptive statistics.

patients with knee OA [2] = experiment: Clinical trial: WOMAC index scores after a single intra-articular dose in patients with knee OA; format: in vivo, human; conditions: for Total WOMAC score, absolute change from baseline, Estimate / WOMAC subscore for Pain, absolute change from baseline, Estimate / WOMAC subscore for Physical function, absolute change from baseline, Estimate / WOMAC subscore for Stiffness, absolute change from baseline, Estimate: 60 mg single intra-articular dose; for Total WOMAC score, Compound A 60 mg vs Placebo, Estimate / WOMAC subscore for Pain, Compound A 60 mg vs Placebo, Estimate / WOMAC subscore for Physical function, Compound A 60 mg vs Placebo, Estimate / WOMAC subscore for Stiffness, Compound A 60 mg vs Placebo, Estimate: difference in change from baseline; for WOMAC subscore for Stiffness, Effect size (90% CI): vs placebo
Method: as §1, §2, §3
Compound A was supplied as a lyophilized cake (to be reconstituted in water for injection for intra-articular administration) in vials containing 20, 40 and 80 mg total of active Compound A. The placebo was commercially available 0.9% saline solution for the injection.
The following sub-scales from the WOMAC Index were used to assess the activity of the drug upon pain, stiffness and physical function. Each item will be rated on the basis of the patient's symptoms over the last 48 h, by means of a 5 point Likert Scale: none, mild, moderate, severe, or very severe.
The primary endpoint was the WOMAC Pain sub-scale at Day 56 for evidence of efficacy (change from baseline).
Inclusion criteria are: • Diagnosis of primary knee osteoarthritis, based upon the following: • X-ray or MRI evidence within the last 6 months for joint space narrowing and osteophyte formation—patients will be Kellgren and Lawrence classification II/III, • Total WOMAC score 24-72 and • Fulfilling the American College of Rheumatology Clinical and Radiographic criteria for OA.
Analysis of Efficacy Variables:
Using the primary analysis efficacy population and for WOMAC sub-score for pain on Day 56, treatment mean differences (Compound A minus placebo) in change from baseline and their one-sided 95% upper limit of the confidence interval were computed using linear fixed effects models with fixed terms for treatment group and sex, and with an unstructured R variance/covariance matrix on treatment group for patient within sex blocks, using SAS Proc Mixed®. In case of convergence problems, other variance-covariance structures were explored.
The signs and symptoms of OA were measured with a standard instrument as WOMAC index.
WOMAC index consists of 24 questions in 3 dimensions subscales: • Pain subcale (5 items) • Stiffness subscale (2 items) • Physical function subscale (17 items)
Each item was rated by means of a 5 point Likert scale: none (=0), mild (=1), moderate (=2), severe (=3) and very severe (=4) A total WOMAC score and a WOMAC subscore for each dimension was calculated.
A supportive analysis to the primary analysis was conducted over patients from the efficacy population and with at least one post-dose WOMAC sub-score measurement, using a last observations carried forward (LOCF) approach up to Day 56.
The total WOMAC score and WOMAC sub-score for stiffness and physical function were analysed in the same way as for the primary analysis of WOMAC sub-score for pain.
The treatment mean difference between groups with their one-sided 95% upper limit of the CI was estimated for all other days for all scores. Time profile plots of treatment mean differences with their one-sided 95% upper limit of the CI were provided.
For each WOMAC score (total and sub-scores), the effect size based on the estimated (within the fixed effects model frameworks) mean treatment difference in change from baseline between groups (active versus placebo) were provided at each day with their corresponding 95% CI.

patients with knee OA [3] = experiment: as above; format: in vivo, human; conditions: Day 56; vs placebo; efficacy population (all patients); negative = positive effect of drug
[4] = Day 56, efficacy population (all patients)
[5] = Day 56, patients with effusion at baseline

CNc1nccc(-c2cc3cc(C(=O)N[C@@H](CN(c4ccccc4)c4ncccn4)C(N)=O)ccc3[nH]2)n1 [Compound A, 2-(2-methylamino-pyrimidin-4-yl)-1H-indole-5-carboxylic acid [(S)-1-carbamoyl-2-(phenyl-pyrimidin-2-yl-amino)-ethyl]-amide]
reported TEAEs and their severity, including local reactions at the injection site, vs placebo (0.9% saline) (patients with knee OA [1]; 60 mg single intra-articular dose): no difference between Compound A and placebo
tolerability of single doses (patients with knee OA [1]; 60 mg single intra-articular dose, patients with knee OA): well tolerated
most frequent TEAE (patients with knee OA [1]; after administration of Compound A or placebo, followed by injection site reactions): Arthralgia
Total WOMAC score, absolute change from baseline, Estimate (patients with knee OA [2]; [4]): −10.5566
WOMAC subscore for Pain, absolute change from baseline, Estimate (patients with knee OA [2]; [4]): −1.8229
WOMAC subscore for Physical function, absolute change from baseline, Estimate (patients with knee OA [2]; [4]): −7.7966
WOMAC subscore for Stiffness, absolute change from baseline, Estimate (patients with knee OA [2]; [4]): −0.9406
Total WOMAC score, absolute change from baseline, Estimate (patients with knee OA [2]; [5]): −17.0761
WOMAC subscore for Pain, absolute change from baseline, Estimate (patients with knee OA [2]; [5]): −2.9701
WOMAC subscore for Physical function, absolute change from baseline, Estimate (patients with knee OA [2]; [5]): −12.9658
WOMAC subscore for Stiffness, absolute change from baseline, Estimate (patients with knee OA [2]; [5]): −1.1672
effect sizes for WOMAC subscores (patients with knee OA [2]; Day 56, all patients, negative indicates a positive effect of drug against placebo): 0.12 to −0.04
Total WOMAC score, Compound A 60 mg vs Placebo, Estimate (patients with knee OA [2]; [4]): 1.0495
WOMAC subscore for Pain, Compound A 60 mg vs Placebo, Estimate (patients with knee OA [2]; [4]): 0.4554
WOMAC subscore for Physical function, Compound A 60 mg vs Placebo, Estimate (patients with knee OA [2]; [4]): 0.6854
WOMAC subscore for Stiffness, Compound A 60 mg vs Placebo, Estimate (patients with knee OA [2]; [4]): −0.0573
Total WOMAC score, Compound A 60 mg vs Placebo, Estimate (patients with knee OA [2]; [5]): −9.3562
WOMAC subscore for Pain, Compound A 60 mg vs Placebo, Estimate (patients with knee OA [2]; [5]): −1.7213
WOMAC subscore for Physical function, Compound A 60 mg vs Placebo, Estimate (patients with knee OA [2]; [5]): −6.8188
WOMAC subscore for Stiffness, Compound A 60 mg vs Placebo, Estimate (patients with knee OA [2]; [5]): −0.9028
effect on WOMAC Pain subscores, other WOMAC subscores or Total score (patients with knee OA [2]; Day 56, efficacy population (all patients), 60 mg): neither a clinically significant nor a statistically significant effect
WOMAC subscore for Stiffness, Effect size (90% CI) (patients with knee OA [2]; Day 56, efficacy population (all patients), negative = positive effect of drug): −0.04
WOMAC subscore for Stiffness, Effect size (90% CI) (patients with knee OA [2]; [5]): −0.71
efficacy on pain in patients with knee osteoarthritis and effusion (WOMAC assessment) (patients with knee OA [2]; subgroup of patients with effusion at baseline): significant efficacy; also recorded: significant effect
Total WOMAC score, Effect size (90% CI) (patients with knee OA [3]): 0.06
WOMAC subscore for Pain, Effect size (90% CI) (patients with knee OA [3]): 0.12
WOMAC subscore for Physical function, Effect size (90% CI) (patients with knee OA [3]): 0.06
